In patent US9850283B2, “Macrocyclic inhibitors of the PD-1/PD-L1 and CD80(B7-1)/PD-L1 protein/protein interactions” (BRISTOL-MYERS SQUIBB COMPANY, priority 2013, dated 2017):
Like-named read-outs stand apart in the source and are kept apart here. Starred links: 1 amine or outer side, 2 acyl side, 3 side chain; linkers in the order of their positions; H or OH if unused. Positions of bridges follow the written chain, without caps; N, C: chain ends. Non-standard residues stand in square brackets, D forms with d. Residues, ends and D or L forms follow the SMILES beside them. ξ: configuration not given here. Phe(4-CHF2) = N[C@@H](Cc1ccc(C(F)F)cc1)C(=O)O; X10 = O=C([C@H](Cc1ccc(F)c(Cl)c1)N[*:1])[*:2]; Phe(4-CH2NH2) = NCc1ccc(C[C@H](N)C(=O)O)cc1; Phe(3-Cl) = N[C@@H](Cc1cccc(Cl)c1)C(=O)O; Phe(4-Cl) = N[C@@H](Cc1ccc(Cl)cc1)C(=O)O; Phe(4-NH2) = Nc1ccc(C[C@H](N)C(=O)O)cc1; d(cisHyp) = O=C(O)[C@H]1C[C@@H](O)CN1; Pro(3S-OH) = O=C(O)[C@H]1NCC[C@@H]1O; Bta = N[C@@H](Cc1csc2ccccc12)C(=O)O; Hyp = O=C(O)[C@@H]1C[C@@H](O)CN1; NMeF = CN[C@@H](Cc1ccccc1)C(=O)O; NMeNle = CCCC[C@H](NC)C(=O)O; NMeM = CN[C@@H](CCSC)C(=O)O; NMeA = CN[C@@H](C)C(=O)O; Orn = NCCC[C@H](N)C(=O)O; Dab = NCC[C@H](N)C(=O)O; Dap = NC[C@H](N)C(=O)O; ξC = NC(CS)C(=O)O; Sar = CNCC(=O)O

Columns and labels:
[1] = target: T1, LK35.2-hPD-L1 cells / PE-labeled PD-1-Ig (Homo sapiens, UniProt Q9NZQ7); experiment: LK35.2-hPD-L1 cell binding high-content screening assay; assay type: cell-based; details: cluster symbol, read-out: CBA IC50 cluster
T1 construct: expressed in transfected cells; host or cells: LK35.2 mouse B cell line
Outline: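 Mouse LK35.2 B cells stably overexpressing human PD-L1 were cultured overnight in RPMI with 10% FCS, then given compound and PE-labeled human PD-1-Ig (1 nM final) for 1 h at 37 °C. After three dPBS washes, bound fluorescence was quantified by high-content imaging.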

Human PD-L1/PD-1 = target: T2, Human PD-L1/PD-1 (Homo sapiens, UniProt Q9NZQ7); experiment: HTRF PD-1-Ig/PD-L1-His binding assay (human PD-L1); details: cluster symbol; read-out: HTRF IC50 cluster
T2 construct: made in house; host or cells: HEK293T
Outline: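 Steps: truncated PD-1-Ig and PD-L1-His fusions are incubated in dPBS containing 0.1% (w/v) BSA and 0.05% (v/v) Tween-20. Detection antibodies are then added (Eu cryptate anti-Ig at 1 nM final, APC anti-His at 20 nM final), and time-resolved FRET is measured.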

[2] = cell binding assay, cell line not given
[3] = cell line of CBA not given (LK35.2-hPD-L1 or 293T-hPD-L1)

T1 sequence (Q9NZQ7 19-290): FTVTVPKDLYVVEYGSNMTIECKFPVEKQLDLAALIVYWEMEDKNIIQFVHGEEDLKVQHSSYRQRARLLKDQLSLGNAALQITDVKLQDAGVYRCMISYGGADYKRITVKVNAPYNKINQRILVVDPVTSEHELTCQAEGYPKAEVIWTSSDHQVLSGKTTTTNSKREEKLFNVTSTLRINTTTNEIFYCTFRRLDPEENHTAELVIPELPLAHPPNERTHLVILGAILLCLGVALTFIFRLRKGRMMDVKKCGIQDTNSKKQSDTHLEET
T2 sequence (Q9NZQ7 with tags, fused parts or gaps): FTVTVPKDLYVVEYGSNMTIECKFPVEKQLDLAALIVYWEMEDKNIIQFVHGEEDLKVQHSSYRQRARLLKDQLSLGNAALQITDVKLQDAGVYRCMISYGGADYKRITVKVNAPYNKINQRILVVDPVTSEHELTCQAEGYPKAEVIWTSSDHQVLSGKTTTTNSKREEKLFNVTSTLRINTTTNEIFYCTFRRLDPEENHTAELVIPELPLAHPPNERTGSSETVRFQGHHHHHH

Row | IC50 [1, 2] [nM] | IC50 (Human PD-L1/PD-1) [nM] | IC50 [1, 3] [nM] | Structure (SMILES)
1 | 4.78 to 72.9 | 0.385 to 6.74 |  | CCCC[C@H]1C(=O)N(C)[C@@H](CCCC)C(=O)N[C@@H](CCCNC(=N)N)C(=O)N[C@H](C(=O)NCC(N)=O)CSCC(=O)N[C@@H](Cc2ccc(N)cc2)C(=O)N(C)[C@@H](C)C(=O)N[C@@H](CC(N)=O)C(=O)N2CCC[C@H]2C(=O)N[C@@H](Cc2cnc[nH]2)C(=O)N[C@@H](CC(C)C)C(=O)N2C[C@H](O)C[C@H]2C(=O)N[C@@H](Cc2c[nH]c3ccccc23)C(=O)N[C@@H](CO)C(=O)N[C@@H](Cc2c[nH]c3ccccc23)C(=O)N1C [Example 7059] ({CH2CO}-[Phe(4-NH2)][NMeA]NPHL[Hyp]WSW[NMeNle][NMeNle]RCG-NH2; thioether N-14)
2 | 0.158 to 4.71 | 0.385 to 6.74 |  | CCCC[C@H]1C(=O)N2C[C@H](O)C[C@@H]2C(=O)N[C@@H](CC(=O)O)C(=O)N[C@@H](C(C)C)C(=O)N(C)[C@@H](Cc2ccccc2)C(=O)N[C@@H](Cc2ccc(O)cc2)C(=O)N(C)CC(=O)N[C@@H](Cc2c[nH]c3ccccc23)C(=O)N[C@@H](Cc2ccc(O)cc2)C(=O)N[C@@H](CC(C)C)C(=O)N[C@H](C(=O)NCC(N)=O)CSCC(=O)N[C@@H](Cc2ccccc2)C(=O)N(C)[C@@H](Cc2ccccc2)C(=O)N1C [Example 3575] ({CH2CO}-F[NMeF][NMeNle][d(cisHyp)]DV[NMeF]Y[Sar]WYLCG-NH2; thioether N-13)
3 | 4.78 to 72.9 | 6.76 to 30.3 |  | CCCC[C@H]1C(=O)N(C)CC(=O)N[C@@H](CC(=O)O)C(=O)N[C@@H](C(C)C)C(=O)N(C)[C@@H](Cc2ccccc2)C(=O)N[C@@H](Cc2ccc(O)cc2)C(=O)N(C)CC(=O)N[C@@H](Cc2c[nH]c3ccccc23)C(=O)N[C@@H](Cc2ccc(O)cc2)C(=O)N[C@@H](Cc2ccccc2)C(=O)N[C@H](C(=O)NCC(N)=O)CSCC(=O)N[C@@H](Cc2ccccc2)C(=O)N(C)[C@@H](Cc2ccccc2)C(=O)N1C [Example 3537] (HELM PEPTIDE1{[O=C(C[*:3])[*:2]].F.[meF].[CCCC[C@@H](C(=O)[*:2])N(C)[*:1]].[Sar].D.V.[meF].Y.[Sar].W.Y.F.C.G.[am]}$PEPTIDE1,PEPTIDE1,1:R3-14:R3$$$V2.0)
4 |  | 0.385 to 6.74 | 0.158 to 4.71 | CCCC[C@H]1C(=O)N(C)CC(=O)N[C@@H](CC(=O)O)C(=O)N[C@@H](C(C)C)C(=O)N(C)[C@@H](Cc2ccccc2)C(=O)N[C@@H](Cc2ccc(O)cc2)C(=O)N(C)CC(=O)N[C@@H](Cc2c[nH]c3ccccc23)C(=O)N[C@@H](Cc2ccc(O)cc2)C(=O)N[C@@H](CC(C)C)C(=O)N[C@H](C(=O)NCC(N)=O)CSCC(=O)N[C@@H](Cc2ccc(Cl)cc2)C(=O)N(C)[C@@H](Cc2ccccc2)C(=O)N1C [Example 3067] ({CH2CO}-[Phe(4-Cl)][NMeF][NMeNle][Sar]DV[NMeF]Y[Sar]WYLCG-NH2; thioether N-13)
5 |  | 0.385 to 6.74 | 0.158 to 4.71 | CCCC[C@H]1C(=O)N(C)[C@@H](CCCC)C(=O)N[C@@H](CN)C(=O)N[C@H](C(=O)NCC(N)=O)CSCC(=O)N[C@@H](Cc2ccc(O)cc2)C(=O)N(C)[C@@H](C)C(=O)N[C@@H](CC(=O)O)C(=O)N2CCC[C@H]2C(=O)N[C@@H](CN)C(=O)N[C@@H](CC(=O)O)C(=O)N2C[C@H](O)C[C@H]2C(=O)N[C@@H](Cc2c[nH]c3ccccc23)C(=O)N[C@@H](CCN)C(=O)N[C@@H](Cc2csc3ccccc23)C(=O)N1C [Example 1224] ({CH2CO}-Y[NMeA]DP[Dap]D[Hyp]W[Dab][Bta][NMeNle][NMeNle][Dap]CG-NH2; thioether N-14)
6 |  | 6.76 to 30.3 | 0.158 to 4.71 | CCCC[C@H]1C(=O)N(C)[C@@H](CCCC)C(=O)N[C@@H](CCCNC(=N)N)C(=O)N[C@H](C(=O)NCC(N)=O)CSCC(=O)N[C@@H](Cc2ccc(O)cc2)C(=O)N(C)[C@@H](C)C(=O)N[C@@H](CC(N)=O)C(=O)N2CCC[C@H]2C(=O)N[C@@H](Cc2cnc[nH]2)C(=O)N[C@@H](CCC(=O)O)C(=O)N2C[C@H](O)C[C@H]2C(=O)N[C@@H](Cc2c[nH]c3ccccc23)C(=O)N[C@@H](CO)C(=O)N[C@@H](Cc2c[nH]c3ccccc23)C(=O)N1C [Example 1159] ({CH2CO}-Y[NMeA]NPHE[Hyp]WSW[NMeNle][NMeNle]RCG-NH2; thioether N-14)
7 | 4.78 to 72.9 | 6.76 to 30.3 |  | CCCC[C@H]1C(=O)N[C@@H](CCCNC(=N)N)C(=O)NC(C(=O)NCC(N)=O)CSCC(=O)N[C@@H](Cc2ccc(O)cc2)C(=O)N(C)[C@@H](C)C(=O)N[C@@H](CC(N)=O)C(=O)N2CCC[C@H]2C(=O)N[C@@H](Cc2cnc[nH]2)C(=O)N[C@@H](CO)C(=O)N2CCC[C@H]2C(=O)N[C@@H](Cc2c[nH]c3ccccc23)C(=O)N[C@@H](CO)C(=O)N[C@@H](Cc2c[nH]c3ccccc23)C(=O)N(C)[C@@H](CCSC)C(=O)N1C (stereo partly shown) [Example 9109] ({CH2CO}-Y[NMeA]NPHSPWSW[NMeM][NMeNle]R[ξC]G-NH2; thioether N-14)
8 |  | 6.76 to 30.3 | 4.78 to 72.9 | CCCC[C@H]1C(=O)N(C)[C@@H](CCCC)C(=O)N[C@@H](CCCNC(=N)N)C(=O)N[C@H](C(=O)NCC(N)=O)CSCC(=O)N[C@@H](Cc2ccc(O)cc2)C(=O)N(C)[C@@H](C)C(=O)N[C@@H](CCN)C(=O)N2CCC[C@H]2C(=O)N[C@@H](C)C(=O)N[C@@H](CCC(=O)O)C(=O)N2C[C@H](O)C[C@H]2C(=O)N[C@@H](Cc2c[nH]c3ccccc23)C(=O)N[C@@H](CO)C(=O)N[C@@H](Cc2c[nH]c3ccccc23)C(=O)N1C [Example 1155] ({CH2CO}-Y[NMeA][Dab]PAE[Hyp]WSW[NMeNle][NMeNle]RCG-NH2; thioether N-14)
9 | 0.158 to 4.71 | 0.385 to 6.74 |  | CCCC[C@H]1C(=O)N[C@@H](C)C(=O)NC(C(=O)NCC(N)=O)CSCC(=O)N[C@@H](Cc2ccc(O)cc2)C(=O)N(C)[C@@H](C)C(=O)N[C@@H](CC(N)=O)C(=O)N2CCC[C@H]2C(=O)N[C@@H](CN)C(=O)N[C@@H](CC(C)C)C(=O)N2C[C@H](O)C[C@H]2C(=O)N[C@@H](Cc2c[nH]c3ccccc23)C(=O)N[C@@H](CO)C(=O)N[C@@H](Cc2csc3ccccc23)C(=O)N(C)[C@@H](CCSC)C(=O)N1C (stereo partly shown) [Example 9096] ({CH2CO}-Y[NMeA]NP[Dap]L[Hyp]WS[Bta][NMeM][NMeNle]A[ξC]G-NH2; thioether N-14)
10 | 0.158 to 4.71 | 0.385 to 6.74 |  | CCCC[C@H]1C(=O)N(C)CC(=O)N[C@@H](CC(=O)O)C(=O)N[C@@H](C(C)C)C(=O)N(C)[C@@H](Cc2ccccc2)C(=O)N[C@@H](Cc2ccc(O)cc2)C(=O)N(C)CC(=O)N[C@@H](Cc2c[nH]c3ccccc23)C(=O)N[C@@H](Cc2ccc(O)cc2)C(=O)N[C@@H](CC(C)C)C(=O)N[C@H](C(=O)NCC(N)=O)CSCC(=O)N[C@@H](Cc2ccc(F)c(Cl)c2)C(=O)N(C)[C@@H](Cc2ccccc2)C(=O)N1C [Example 3567] ({CH2CO}-[X10][NMeF][NMeNle][Sar]DV[NMeF]Y[Sar]WYLCG-NH2; thioether N-13)
11 |  | > 30.5 | > 74.3 | CCCC[C@H]1C(=O)N(C)[C@@H](CCCC)C(=O)N[C@@H](CCCNC(=N)N)C(=O)N[C@H](C(=O)NCC(N)=O)CSCC(=O)N[C@@H](Cc2ccc(O)cc2)C(=O)N2CC[C@H](O)[C@H]2C(=O)N[C@@H](CC(N)=O)C(=O)N2CCC[C@H]2C(=O)N[C@@H](Cc2cnc[nH]2)C(=O)N[C@@H](CC(C)C)C(=O)N2CCC[C@H]2C(=O)N[C@@H](Cc2c[nH]c3ccccc23)C(=O)N[C@@H](CO)C(=O)N[C@@H](Cc2csc3ccccc23)C(=O)N1C [Example 1227] ({CH2CO}-Y[Pro(3S-OH)]NPHLPWS[Bta][NMeNle][NMeNle]RCG-NH2; thioether N-14)
12 |  | > 30.5 | > 74.3 | CCCC[C@H]1C(=O)N(C)[C@@H](CCCC)C(=O)N[C@@H](CCCNC(=N)N)C(=O)N[C@H](C(=O)NCC(N)=O)CSCC(=O)N[C@@H](Cc2ccc(C(F)F)cc2)C(=O)N(C)[C@@H](C)C(=O)N[C@@H](CC(N)=O)C(=O)N2CCC[C@H]2C(=O)N[C@@H](Cc2cnc[nH]2)C(=O)N[C@@H](CC(C)C)C(=O)N2CCC[C@H]2C(=O)N[C@@H](Cc2c[nH]c3ccccc23)C(=O)N[C@@H](CO)C(=O)N[C@@H](Cc2csc3ccccc23)C(=O)N1C [Example 1044] ({CH2CO}-[Phe(4-CHF2)][NMeA]NPHLPWS[Bta][NMeNle][NMeNle]RCG-NH2; thioether N-14)
13 |  | 0.385 to 6.74 | 4.78 to 72.9 | CCCC[C@H]1C(=O)N(C)[C@@H](CCCC)C(=O)N[C@@H](C)C(=O)N[C@H](C(=O)NCC(N)=O)CSCC(=O)N[C@@H](Cc2ccc(O)cc2)C(=O)N(C)[C@@H](C)C(=O)N[C@@H](CCC(=O)O)C(=O)N2CCC[C@H]2C(=O)N[C@@H](Cc2cnc[nH]2)C(=O)N[C@@H](CCCN)C(=O)N2C[C@H](O)C[C@H]2C(=O)N[C@@H](Cc2c[nH]c3ccccc23)C(=O)N[C@@H](CO)C(=O)N[C@@H](Cc2c[nH]c3ccccc23)C(=O)N1C [Example 1178] ({CH2CO}-Y[NMeA]EPH[Orn][Hyp]WSW[NMeNle][NMeNle]ACG-NH2; thioether N-14)
14 |  | 6.76 to 30.3 | 4.78 to 72.9 | CCCC[C@H]1C(=O)N(C)CC(=O)N[C@@H](CC(=O)O)C(=O)N[C@@H](C(C)C)C(=O)N(C)[C@@H](Cc2ccccc2)C(=O)N[C@@H](Cc2ccc(CN)cc2)C(=O)N(C)CC(=O)N[C@@H](Cc2csc3ccccc23)C(=O)N[C@@H](Cc2ccc(O)cc2)C(=O)N[C@@H](CC(C)C)C(=O)N[C@H](C(=O)NCC(N)=O)CSCC(=O)N[C@@H](Cc2cccc(Cl)c2)C(=O)N(C)[C@@H](Cc2ccccc2)C(=O)N1C [Example 3118] ({CH2CO}-[Phe(3-Cl)][NMeF][NMeNle][Sar]DV[NMeF][Phe(4-CH2NH2)][Sar][Bta]YLCG-NH2; thioether N-13)
